Assays:
Format in all cases: in vivo
Ipomoea hederacea [1] = experiment: Herbicidal effect, corn Wagner pot test, Example 7; settings: day 11 after sowing, scale 0 to 100
Protocol: (§1) The plastic cup was shaken by the hand so as to attach the clothianidin suspension to the corn seeds.
(§2) A soil was packed in a 1/5000a Wagner pot. The above corn seeds. were sown in the Wagner pot at a rate of one seed per pot, and the seeds of Ipomoea hederacea were sown in the pot at a rate of three seeds per pot. […] The aqueous diluted solution of saflufenacil was prepared by dissolving a given amount of saflufenacil in acetone containing 2% (w/v) of Tween 20, and diluting this solution with water to an acetone concentration of 10% (v/v).
(§3) On day 11 after sowing of the seeds of corn and Ipomoea hederacea, the herbicidal effect and phytotoxicity were examined.

Spodoptera litura [2] = experiment: Insecticidal effect (protective value), corn pot test, Example 5; settings: day 3 after release
Protocol: (§4) The evaluation of the insecticidal effect was performed by determining the life and death of the insects at the time of the investigation and calculating the protective value according to the following equation; Protective Value (%)=100×(1−T/C) wherein the symbols have the following meanings;
(§5) C: The number of insects at the time of observation in an untreated section: and
(§6) T: The number of insects at the time of observation in a treated section.
(§7) In addition, the clothianidin suspension was attached to the corn seeds in a similar manner except that it was used in an amount of 217.5 μL.
The aqueous diluted solution of saflufenacil was prepared by dissolving a given amount of saflufenacil in acetone containing 2% (w/v) of Tween 20, and diluting this solution with water to an acetone concentration of 10% (v/v).
(§8) Thereafter, the test pot was placed in a greenhouse. On day 22 after corn sowing, 10 fourth-instar larvae of Spodoptera litura were released in the pot and the whole pot was then covered with a nylon cloth.
(§9) On day 3 after release of Spodoptera litura, the insecticidal effect was examined.

Aulacorthum solani [3] = experiment: Insecticidal effect (protective value), soybean pot test, Example 3; settings: day 7 after release
Protocol: as §4, §5, §6
(§10) Thereafter, the test pot was placed in a greenhouse.

Ipomoea hederacea [4] = experiment: Herbicidal effect, soybean Wagner pot test, Example 6; settings: clothianidin 73 g/ha; flumioxazin none; day 11 after sowing; scale 0 to 100
Text: (§11) A soil was packed in a 1/5000a Wagner pot. The above soybean seeds were sown in the Wagner pot at a rate of two seeds per pot, and the seeds of Ipomoea hederacea were sown in the pot at a rate of three seeds per pot.
(§12) On day 11 after sowing of the seeds of soybean and Ipomoea hederacea, the herbicidal effect and phytotoxicity were examined.

corn = experiment: Phytotoxicity to corn, Example 7; settings: day 11 after sowing
Protocol: as §1, §2, §3

soybean = experiment: Phytotoxicity to soybean, Example 6; settings: clothianidin 73 g/ha; flumioxazin none; day 11 after sowing
Text: as §11, §12

Aulacorthum solani [5] = experiment: Insecticidal effect (protective value), soybean pot test, Example 1; settings: clothianidin 44.7 g/ha; flumioxazin none; day 6 after release
Protocol: as §4, §5, §6, §10

Spodoptera litura [6] = experiment: Insecticidal effect (protective value), corn pot test, Example 4; settings: flumioxazin none, day 3 after release
Protocol: as §4, §5, §6, §7, §8, §9

Ipomoea lacunosa [7] = experiment: Herbicidal activity, corn pot test, Example 76; settings: metalaxyl-M none, ten days after sowing
Protocol: In a glass container measuring 60 mm in inner diameter and 20 mm in height, 15 mg of a metalaxyl-M emulsifiable concentrate (emulsifiable concentrate containing 33.3% metalaxyl-M, manufactured by Syngenta under the trade name of Apron XL) and 25 corn seeds were placed. After capping this glass container, the metalaxyl-M emulsifiable concentrate was adhered to the corn seeds by shaking the glass container by hand. In the same manner, 33 mg of the metalaxyl-M emulsifiable concentrate was adhered to the corn seeds.
(§13) A plastic pot measuring 194 mm in inner diameter and 176 mm in height was filled with the soil. In this pot, 2 corn seeds were sown per 1 pot and 10 seeds of Ipomoea lacunosa were sown per 1 pot. On the day of sowing of the corn seeds, after sowing the corn seeds, a water diluted solution (24.5 mg of product/liter) of a flumioxazin granular wettable powder (granular wettable powder containing 51% flumioxazin, manufactured by Valent USA Corporation under the trade name of Valor SX), a water diluted solution (66.7 mg of product/liter) of a sulfentrazone granular wettable powder (granular wettable powder containing 75% sulfentrazone manufactured by FMC Corporation under the trade name of Cover), a water diluted solution (15 mg/liter) of saflufenacil and a water diluted solution (100 mg/liter) of oxyfluorfen were uniformly sprayed over a surface of the soil in each amount described in Tables 28 to 31, using a sprayer. The water diluted solutions of saflufenacil and oxyfluorfen were prepared by dissolving each predetermined amount of saflufenacil and oxyfluorfen in acetone containing 2% (w/v) Tween 20 and diluting each solution with water so as to adjust the concentration of acetone to 10% by volume.
Ten days after sowing the seeds of corn and Ipomoea lacunosa, herbicidal activity was examined.

Ipomoea lacunosa [8] = experiment: Herbicidal activity, corn pot test, Example 59; settings: pyraclostrobin none, twelve days after sowing
Protocol: In a glass container measuring 60 mm in inner diameter and 20 mm in height, 8 mg of a pyraclostrobin emulsifiable concentrate (emulsifiable concentrate containing 23.8% pyraclostrobin, manufactured by BASF under the trade name of Comet) and 25 corn seeds were placed. After capping a glass container, the pyraclostrobin emulsifiable concentrate was adhered to the corn seeds by shaking the glass container by hand. In the same manner, 22 mg of the pyraclostrobin emulsifiable concentrate was adhered to the corn seeds.
as §13, with “75% sulfentrazone,” for “75% sulfentrazone”, “Tables 22” for “Tables 28”, “to 25,” for “to 31,”
Twelve days after sowing the seeds of corn and Ipomoea lacunose, herbicidal activity was examined.

Ipomoea hederacea [9] = experiment: Herbicidal activity, corn pot test, Example 16; settings: azole seed treatment none, saflufenacil 30 g/ha, twelve days after sowing
Protocol: In a glass container measuring 60 mm in inner diameter and 20 mm in height, 8 μl of a prothioconazole emulsifiable concentrate (emulsifiable concentrate containing 25% prothioconazole, manufactured by Bayer Crop Science Inc. under the trade name of Proline) and 20 corn seeds were placed. The prothioconazole emulsifiable concentrate was adhered to the corn seeds by shaking this plastic cup by hand. In the same manner, 8 μl of a difenoconazole emulsifiable concentrate (emulsifiable concentrate containing 25% difenoconazole, manufactured by Syngenta under the trade name of Score) was adhered to 20 corn seeds. In the same manner, 50 mg of a tebuconazole suspension (suspension containing 20% tebuconazole, manufactured by Hokko Chemical Industry under the trade name of ONLY ONE Flowable) was adhered to 20 corn seeds.
A plastic pot measuring 194 mm in inner diameter and 176 mm in height was filled with the soil. In this pot, 3 corn seeds were sown per 1 pot and 10 seeds of Ipomoea hederacea were sown per 1 pot. […]

Aulacorthum solani [10] = experiment: Insecticidal effect (protective value), soybean pot test, Example 2; settings: thiamethoxam 78.9 g/ha; flumioxazin none; day 6 after release
Protocol: as §4, §5, §6, §10

[11] = clothianidin 340 g/ha, saflufenacil none
[12] = clothianidin 605 g/ha, saflufenacil none
[13] = clothianidin none, saflufenacil 32 g/ha

## CN/C(=N\[N+](=O)[O-])NCc1cnc(Cl)s1 [Clothianidin, clothianidin]
Ipomoea hederacea [1]; [11]
  Evaluation of Effect on Weeds: 0
Ipomoea hederacea [1]; [12]
  Evaluation of Effect on Weeds: 0
Spodoptera litura [2]; clothianidin 272 g/ha, saflufenacil none
  Protective Value: 30%
Spodoptera litura [2]; clothianidin 496 g/ha, saflufenacil none
  Protective Value: 40%
Aulacorthum solani [3]; clothianidin 55.3 g/ha, sulfentrazone none
  Protective Value: 55.2%
Ipomoea hederacea [4]
  Evaluation of Effect on Weeds: 0
corn; [11]
  Phytotoxicity to Corn: No harm
corn; [12]
  Phytotoxicity to Corn: No harm
soybean
  Phytotoxicity to Soybean: No harm
Aulacorthum solani [5]
  Protective Value: 59.1%
Spodoptera litura [6]; clothianidin 553 g/ha
  Protective Value: 30%
Spodoptera litura [6]; clothianidin 984 g/ha
  Protective Value: 65%

## CCOc1cc(Oc2ccc(C(F)(F)F)cc2Cl)ccc1[N+](=O)[O-] [Oxyfluorfen, oxyfluorfen]
Ipomoea lacunosa [7]; oxyfluorfen 200 g/ha
  Herbicidal activity: 45
Ipomoea lacunosa [8]; oxyfluorfen 200 g/ha
  Herbicidal activity: 45

## CC(C)N(C)S(=O)(=O)NC(=O)c1cc(-n2c(=O)cc(C(F)(F)F)n(C)c2=O)c(F)cc1Cl [Saflufenacil, saflufenacil]
Ipomoea lacunosa [7]; saflufenacil 30 g/ha
  Herbicidal activity: 45
Ipomoea hederacea [1]; [13]
  Evaluation of Effect on Weeds: 50
Spodoptera litura [2]; [13]
  Protective Value: 0%
Spodoptera litura [2]; clothianidin none, saflufenacil 125 g/ha
  Protective Value: 0%
Ipomoea hederacea [9]
  Herbicidal activity on Ipomoea hederacea: 88
Ipomoea lacunosa [8]; saflufenacil 30 g/ha
  Herbicidal activity: 45
corn; [13]
  Phytotoxicity to Corn: No harm

## Cc1nn(-c2cc(NS(C)(=O)=O)c(Cl)cc2Cl)c(=O)n1C(F)F [Sulfentrazone, sulfentrazone]
Ipomoea lacunosa [7]; sulfentrazone 100 g/ha
  Herbicidal activity: 40
Aulacorthum solani [3]; clothianidin none, sulfentrazone 200 g/ha
  Protective Value: 0%
Ipomoea lacunosa [8]; sulfentrazone 100 g/ha
  Herbicidal activity: 40

## CN1COCN(Cc2cnc(Cl)s2)/C1=N\[N+](=O)[O-] [Thiamethoxam, thiamethoxam]
Aulacorthum solani [10]
  Protective Value: 86.9%

Source: US8859463B2, “Method for controlling noxious organisms” (Sumitomo Chemical Company, Limited, priority 2009, dated 2014)
